This passage reports EC50 and IC50 results from patent US20230339981A1, “KRAS G12D MODULATING COMPOUNDS” (priority 2022, published 2023).

One experiment relates to GP2D (KRAS G12D) cells. The experiment can be described thus: 2D cell viability assay (CellTiter-Glo). To be noted: GP2d, 96 h, 4 days. It is filed as cell-based. In short, it runs like this: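 Viability was read by CellTiter-Glo after 4 days at 37 °C of 2D culture of KRAS G12D GP2D cells (1000/well, RPMI, 10% FBS) on pre-spotted threefold compound dilutions. EC50 was fitted with a sigmoidal dose-response model as the point of half-maximal luminescence loss.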
In general terms: ATP-based viability assays read luminescence as a measure of living cells.

In a further experiment the test system is AsPC-1 (KRAS G12D) cells. The experiment can be described thus: 3D cell viability assay (spheroids, CellTiter-Glo 3D). To be noted: Homo sapiens, ASPC1, 96 h, AsPC-1 cells, 3D spheroids, 4 days. It is filed as cell-based. The method, then: Example C. 3D Cell Viability Assay
Compounds were tested in a 384-well format for their ability to inhibit the viability of AsPC-1 (KRAS G12D) cells in 3D assays. On day 0, 1000 cells/well (80 μL volume per well) in DMEM with 10% FBS, and Penicillin-Streptomycin-Glutamine were plated in 384-well Ultra-Low Attachment Spheroid Microplates (Corning, Catalog #3830) on the BioTEK EL406 liquid dispenser with a 5 μL dispensing cassette (BioTek 7170011). The plates were incubated at 37° C., 5% CO2 for 3 days to allow spheroid formation. On day 3, compounds were serially diluted (1:3) in DMSO. The Biomek FX was used to add 400 nL of test molecule per well. The plates were incubated at 37° C., 5% CO2 for 4 days before addition of CellTiter-Glo 3D (Promega, Catalog #9683) reagent and measurement of luminescence signal. EC50 values were defined as the compound concentration that causes a 50% decrease in luminescence signal and were calculated using a sigmoidal dose-response model to generate curve fits.

The target in a further experiment is GDP-loaded KRAS G12D (Homo sapiens (Human), UniProt P01116, G12D). In words: KRAS G12D (GDP) biochemical assay (TR-FRET probe displacement). It is filed as binding. To be noted: 2 hours. A digest of the protocol:
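TR-FRET probe displacement: 1:3 DMSO serial dilutions pre-incubated 30 min with GDP-bound KRAS G12D, followed by Eu-streptavidin/probe for 2 h at room temperature (Hepes pH 7.4, NaCl, MgCl2, Tween-20 buffer). IC50 defined as concentration halving TR-FRET ratio, from sigmoidal dose-response fit.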
(In general: In TR-FRET formats the signal depends on donor and acceptor labels being close together.)

Sequence of GDP-loaded KRAS G12D (P01116-2 other isoform, or with tags, fused parts or gaps G12D): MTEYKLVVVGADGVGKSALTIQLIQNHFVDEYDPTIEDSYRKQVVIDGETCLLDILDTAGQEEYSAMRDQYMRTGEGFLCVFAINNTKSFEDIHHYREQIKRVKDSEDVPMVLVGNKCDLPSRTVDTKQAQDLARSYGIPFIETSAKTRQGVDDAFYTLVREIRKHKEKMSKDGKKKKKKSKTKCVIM

Regarding `C#Cc1c(F)ccc2cc(O)cc(-c3nc4c5c(nc(OC[C@]67CCCN6C[C@@H](OC(F)(F)F)C7)nc5c3F)N3C[C@H]5CC[C@H](N5)[C@H]3CC4)c12` (stereo in doubt) [Example 141, 5-ethynyl-6-fluoro-4-((5aR,6S,9R)-1-fluoro-12-((trans-2-(trifluoromethoxy)tetrahydro-1H-pyrrolizin-7a(5H)-yl)methoxy)-4,5,5a,6,7,8,9,10-octahydro-3,10a,11,13,14-pentaaza-6,9-methanonaphtho[1,8-ab]heptalen-2-yl)naphthalen-2-ol], the EC50 with GP2D (KRAS G12D) cells is 0.4 nM; in the experiment on AsPC-1 (KRAS G12D) cells, 3.7 nM. Besides, the IC50 on GDP-loaded KRAS G12D turned out to be 0.2 nM.

With `Oc1cc(-c2nc3c4c(nc(OC[C@@]56CCCN5C[C@H](F)C6)nc4c2F)N2C[C@H]4CC[C@H](N4)[C@H]2CO3)c2c(F)c(F)ccc2c1` [Example 1, 5,6-difluoro-4-((5aS,6S,9R)-1-fluoro-12-(((2R,7aS)-2-fluorotetrahydro-1H-pyrrolizin-7a(5H)-yl)methoxy)-5a,6,7,8,9,10-hexahydro-5H-4-oxa-3,10a,11,13,14-pentaaza-6,9-methanonaphtho[1,8-ab]heptalen-2-yl)naphthalen-2-ol], the EC50 worked out at 19 nM in the experiment with GP2D (KRAS G12D) cells and 170 nM with AsPC-1 (KRAS G12D) cells. Further, the half-maximal inhibitory concentration (IC50) on GDP-loaded KRAS G12D was 0.5 nM.

In the case of `C#Cc1c(F)ccc2cc(O)cc(-c3nc4c5c(nc(OC[C@@]67CCCN6C[C@H](F)C7)nc5c3F)N3C[C@H]5CC[C@H](N5)[C@H]3CO4)c12` [Example 2, 5-ethynyl-6-fluoro-4-((5aS,6S,9R)-1-fluoro-12-(((2R,7aS)-2-fluorotetrahydro-1H-pyrrolizin-7a(5H)-yl)methoxy)-5a,6,7,8,9,1O-hexahydro-5H-4-oxa-3,10a,11,13,14-pentaaza-6,9-methanonaphtho[1,8-ab]heptalen-2-yl)naphthalen-2-ol], the EC50 with GP2D (KRAS G12D) cells is 6 nM; with AsPC-1 (KRAS G12D) cells it was 42 nM. In addition, at GDP-loaded KRAS G12D, the IC50 was 0.2 nM.

For the compound `Oc1cc(-c2nc3c4c(nc(OC[C@@]56CCCN5C[C@H](F)C6)nc4c2F)N2C[C@H]4CC[C@H](N4)[C@H]2CO3)c2c(OC(F)(F)F)cccc2c1` [Example 3, 4-((5aS,6S,9R)-1-fluoro-12-(((2R,7aS)-2-fluorotetrahydro-1H-pyrrolizin-7a(5H)-yl)methoxy)-5a,6,7,8,9,10-hexahydro-5H-4-oxa-3,10a,11,13,14-pentaaza-6,9-methanonaphtho[1,8-ab]heptalen-2-yl)-5-(trifluoromethoxy)naphthalen-2-ol], the EC50 in the experiment with GP2D (KRAS G12D) cells was 24 nM; in the experiment on AsPC-1 (KRAS G12D) cells it was 160 nM. Further, the IC50 at GDP-loaded KRAS G12D is 2 nM.

On to `C#Cc1c(F)ccc2cccc(-c3nc4c5c(nc(OC[C@@]67CCCN6C[C@H](F)C7)nc5c3F)N3C[C@H]5CC[C@H](N5)[C@H]3CO4)c12` [Example 4, (5aS,6S,9R)-2-(8-ethynyl-7-fluoronaphthalen-1-yl)-1-fluoro-12-(((2R,7aS)-2-fluorotetrahydro-1H-pyrrolizin-7a(5H)-yl)methoxy)-5a,6,7,8,9,10-hexahydro-5H-4-oxa-3,10a,11,13,14-pentaaza-6,9-methanonaphtho[1,8-ab]heptalene], for which the EC50 in the experiment with GP2D (KRAS G12D) cells was determined as 45 nM; in the experiment on AsPC-1 (KRAS G12D) cells, 92 nM. On GDP-loaded KRAS G12D, this compound showed an IC50 of 4 nM.

For the compound `Oc1cc(-c2nc3c4c(nc(OC[C@@]56CCCN5C[C@H](F)C6)nc4c2F)N2C[C@H]4CC[C@H](N4)[C@H]2CO3)c2c(Cl)c(F)ccc2c1` [Example 9, 5-chloro-6-fluoro-4-((5aS,6S,9R)-1-fluoro-12-(((2R,7aS)-2-fluorotetrahydro-1H-pyrrolizin-7a(5H)-yl)methoxy)-5a,6,7,8,9,10-hexahydro-5H-4-oxa-3,10a,11,13,14-pentaaza-6,9-methanonaphtho[1,8-ab]heptalen-2-yl)naphthalen-2-ol], the values for the EC50 with GP2D (KRAS G12D) cells and in the experiment with AsPC-1 (KRAS G12D) cells were 20 nM and 77 nM, respectively. Moreover, the IC50 at GDP-loaded KRAS G12D came out at 0.5 nM.

As a reminder, the EC50 is the concentration needed to bring the measured effect to its halfway point. Read a low EC50 as a more potent agent. A word on the IC50: it is the concentration that gives 50% inhibition. The low end stands for higher potency, the high end for lower potency.
